Laboratory results published in the supplement of paper PMC10307832.

Assays:
Assay in all cases: relative viability (nuclei count vs DMSO), 5 days (fraction); higher = more cells survive
[1] = compound: CC(C)C[C@@H](C(=O)N[C@H](C(=O)OC1CCCC1)c1ccccc1)[C@H](O)C(=O)NO [Tosedostat] + CCNC(=O)c1noc(-c2cc(C(C)C)c(O)cc2O)c1-c1ccc(CN2CCOCC2)cc1 [Luminespib] (partner 0.01 µM)
How it was run: (§1)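 One day after seeding in 1536-well plates, lung cancer cell lines were dosed by pin tool. Dosing was either single-drug or a fixed anchor-drug dose plus five library-drug doses (not always all listed) in √10 steps. After 5 days, nuclei were stained in one fix-and-stain step and counted on 4× images, and relative viability is the nuclei count of treated wells over that of vehicle wells, given as the median of duplicate plates.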

[2] = compound: CC(C)C[C@@H](C(=O)N[C@H](C(=O)OC1CCCC1)c1ccccc1)[C@H](O)C(=O)NO [Tosedostat] + O=C(c1cc(Cc2n[nH]c(=O)c3ccccc23)ccc1F)N1CCN(C(=O)C2CC2)CC1 [Olaparib] (partner 8 µM)
How it was run: as §1

[3] = compound: CC1=NN=C(O1)C2=NN=C(C=C2)N3CCC(CC3)OC4=C(C=CC(=C4)F)Cl + CS(=O)(=O)N1CCN(Cc2cc3nc(-c4cccc5[nH]ncc45)nc(N4CCOCC4)c3s2)CC1 [Pictilisib] (partner 1 µM)
How it was run: as §1

[4] = compound: CC1=NN=C(O1)C2=NN=C(C=C2)N3CCC(CC3)OC4=C(C=CC(=C4)F)Cl + NC(=O)Nc1cc(-c2cccc(F)c2)sc1C(=O)N[C@H]1CCCNC1 [AZD7762] (partner 0.2 µM)
How it was run: as §1

Cell Line | relative viability ([1]; first compound 0.02 µM) | relative viability ([1]; first compound 0.06325 µM) | relative viability ([1]; first compound 0.2 µM) | relative viability ([1]; first compound 0.6325 µM) | relative viability ([1]; first compound 2 µM) | relative viability ([2]; first compound 0.02 µM) | relative viability ([2]; first compound 0.06325 µM) | relative viability ([2]; first compound 0.2 µM) | relative viability ([2]; first compound 0.6325 µM) | relative viability ([2]; first compound 2 µM) | relative viability ([3]; first compound 0.253 µM) | relative viability ([3]; first compound 0.8 µM) | relative viability ([3]; first compound 2.53 µM) | relative viability ([3]; first compound 8 µM) | relative viability ([4]; first compound 0.253 µM) | relative viability ([4]; first compound 0.8 µM) | relative viability ([4]; first compound 2.53 µM) | relative viability ([4]; first compound 8 µM)
NCI-H2087 | 0.181 | 0.158 | 0.273 | 0.229 | 0.21 | 0.698 | 0.562 | 0.558 | 0.339 | 0.36 | 0.769 | 0.604 | 0.795 | 0.66 | 0.903 | 0.906 | 0.953 | 0.704
NCI-H727 | 0.305 | 0.513 | – | 0.427 | 0.254 | 0.677 | 0.492 | 0.679 | 0.51 | 0.451 | 0.475 | 0.4 | 0.498 | 0.403 | 0.823 | 0.597 | 0.623 | 0.555
PC-14 | 0.163 | 0.197 | 0.16 | 0.207 | 0.127 | 0.264 | 0.256 | 0.193 | 0.152 | 0.122 | 0.603 | 0.735 | 0.781 | 0.702 | 0.28 | 0.271 | 0.374 | 0.253
NCI-H1975 | 0.208 | 0.195 | 0.382 | 0.325 | 0.19 | 0.909 | 0.8 | 0.824 | 0.63 | 0.659 | – | 0.332 | 0.411 | 0.402 | – | – | 0.717 | 0.719
ChaGo-K-1 | 0.648 | 0.598 | 0.836 | 0.572 | 0.491 | 0.459 | 0.399 | 0.44 | 0.377 | 0.325 | 0.633 | 0.681 | 0.508 | 0.548 | 0.588 | 0.529 | 0.705 | 0.594
NCI-H1437 | 1.13 | 1.07 | 1.2 | 1.24 | 1.13 | 0.641 | 0.615 | 0.659 | 0.596 | 0.604 | 0.556 | 0.426 | 0.447 | 0.386 | 0.726 | 0.851 | 0.93 | 0.848
NCI-H2126 | 0.848 | 0.905 | 0.91 | 0.878 | 0.654 | 0.897 | 0.979 | 0.843 | 0.769 | 0.757 | 0.433 | 0.478 | 0.441 | 0.412 | 0.893 | 0.854 | 0.929 | 0.849
LU99A | 0.316 | 0.245 | 0.337 | 0.277 | 0.232 | 0.278 | 0.216 | 0.211 | 0.171 | 0.19 | 0.303 | 0.327 | 0.304 | 0.34 | 0.349 | 0.341 | 0.57 | 0.385
NCI-H460 | 0.0336 | 0.0335 | 0.03 | 0.0417 | 0.0255 | 0.424 | 0.438 | 0.392 | 0.326 | 0.388 | 0.24 | 0.329 | 0.232 | 0.221 | 0.215 | 0.189 | 0.26 | 0.23
